Results: PMC8344021, “Discovery of Small Molecule Bak Activator for Lung Cancer Therapy” (Theranostics, 2021)

Columns and labels:
[1] = Toxicity in mice bearing A549 xenografts; assay type: in vivo, Nu/Nu nude mice; details: 28 days
Method: To assess whether BKA-073 induced suppression of tumor growth occurs through activation of Bak and apoptosis in vivo, representative samples from harvested tumor tissues were analyzed by cross-linking with BMH for Bak oligomerization or by immunohistochemistry (IHC) for active caspase 3 as described, [29], [47]. […] There were no decreases in white cells (WBC), red blood cells (RBC) and platelets (PLT) in blood.
Figure 5 Toxicity of BKA-073 in vivo. (A-C) Body weight (A), blood analysis (B) and H&E histology of various organs (C) from mice bearing A549 xenografts after treatment with increasing doses (0, 5, 10, 15mg/kg/d) of BKA-073 for 28 days. […]
Whole blood (250µL) was collected in EDTA-coated tubes via cardiac puncture of anesthetized
mice for hematology studies. […]

human Bak protein (WT) = molecular target: T1, human Bak protein (WT) (Homo sapiens, UniProt Q16611); assay: Isothermal titration calorimetry (ITC); details: 25 °C, one-site binding
T1 construct: His6; made in house; host or cells: Escherichia coli BL21 DE3
T1 sequence (Q16611 1-186 limits assumed): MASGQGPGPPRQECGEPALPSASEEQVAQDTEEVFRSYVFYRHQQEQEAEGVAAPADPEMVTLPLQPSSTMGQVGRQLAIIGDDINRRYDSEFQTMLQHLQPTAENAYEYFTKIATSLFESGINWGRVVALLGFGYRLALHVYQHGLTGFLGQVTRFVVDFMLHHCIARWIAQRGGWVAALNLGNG
Method: The binding affinity of BKA-073 with Bak protein was examined by isothermal titration calorimetry (ITC) assay as described, [28]. ITC assay was carried out in the auto-iTC200 instrument (MicroCal, GE) at 25 °C. Purified recombinant human or mouse Bak protein was loaded into a 96 Deepwell PP plate. BKA-073 compound was then titrated stepwise into the protein for a total of 16 injections. Reference power and initial delay were set as 5 µCal/sec and 60s, respectively. A string speed of 750 rpm was used for the ITC measurements. The binding constant (Kd) value was determined by fitting the titration curve to a one-site binding mode, using the Origin software provided by the manufacturer.
To confirm the binding of BKA-073 with Bak, we first conducted a competitive fluorescence polarization (FP) assay using purified human Bak protein, fluorescent Bak BH3 domain peptide, and BKA-073 as described, [37]-[40]. […] There are multiple amino acid differences in the BH3 domains between Bak and other Bcl2 family members, which helps to explain why BKA-073 only binds to Bak but not to other Bcl2 family members (i.e. Bax, Bcl2, Bcl-XL, Bcl-w and Mcl-1). In addition to the FP assay, isothermal titration calorimetry (ITC) was also employed to measure Bak/BKA-073 binding. […] In addition to human Bak/BKA-073 binding, we measured mouse Bak/BKA-073 binding using ITC.

A549-IRR xenografts = assay: Radioresistant A549-IRR xenografts, tumor growth; assay type: in vivo, Nu/Nu nude mice; details: 15 mg/kg/d, 4 weeks
Method: Six-week-old female Nu/Nu nude mice were purchased from Envigo (Indianapolis, IN) and housed under pathogen-free conditions in microisolator cages. The animal propagation protocol was approved by the Emory Institutional Animal Care and Use Committee (IACUC) and the Emory Animal Ethics Committee. 3×10^6 lung cancer cells were injected into subcutaneous tissue in the flank region of nude mice. The tumors were allowed to grow to an average volume of 150~200 mm^3 prior to initiation of therapy as previously described, [29]. Patient-derived xenografts (PDXs, TKO-002 and TKO-005) were established as part of an IRB-approved phase II co-clinical trial of arsenic trioxide in patients with relapsed SCLC who had failed standard platinum-based chemotherapy. Tumor samples were obtained by image-guided biopsy and were directly implanted into Nu/Nu nude mice without intervening propagation in plastic culture plates. Direct serial propagation of growing tumor occurred for up to 5 generations. […] During treatment, tumor volume (V) was measured by caliper measurements once every two days as described previously. […]
Figure S7. […] (A) Expression levels of Bak in A549-P versus A549-IRR cells, H358-P versus H358 -IRR cells or H460-P versus H460-IRR cells were analyzed by Western blot. […]
Tumor volume was measured once every 2 days. After treatment, mice were sacrificed and tumors were removed and analyzed. […]

With `COc1ccc2nc3ccccc3c(NCCNCC(C)O)c2c1` (stereo not shown) [BKA-073] the body weight ([1]; 5, 10, 15mg/kg/d i.p.) was “No weight loss”, the “kidney (BUN) and liver (ALT and AST) function” value ([1]; 5, 10, 15mg/kg/d i.p.) was “in the normal range” and the “white cells (WBC), red blood cells (RBC) and platelets (PLT) in blood” value ([1]; 5, 10, 15mg/kg/d i.p.) was “no decreases”. The tolerability ([1]; 5-15mg/kg/d i.p.) was “well tolerated without significant toxicity”, the “histopathology of normal tissues (heart, liver, lung, brain, spleen, kidney, intestine)” value ([1]; 5~15mg/kg/d i.p.) was “no evidence of normal tissue toxicities” and the Kd (human Bak protein (WT)) was 88.6 ± 5.73 nM. The tumor growth (A549-IRR xenografts) was “repressed xenografts”.
